Assay results reported in patent publication US7994133B2, “Isozyme-specific antagonists of protein kinase C” (The Board of Trustees of the Leland Stanford Junior …, priority 2003, dated 2011).

Key:
Type in all cases: cell-based
[1] = system: neonatal rat cardiac myocytes; experiment: Cardiac myocyte contraction rate measurement; conditions: for effect on ΨεRACK effect on contraction (negative chronotropy): PMA and ΨεRACK, prior application of the inhibitor; for agonistic effect on contraction rate of cardiac myocytes: prior to PMA; for effect on the decrease in contraction rate induced by PMA: 1 nM or 5 nM PMA about 20 minutes after peptide
Protocol: Primary cardiac myocyte cell cultures (90-95% pure) were prepared from newborn rats as previously described (Gray, M. O., et al., J. Biol. Chem. 272:30945-30951, (1997); Disatnik, M.-H., et al., Exp. Cell Res. 210:287-297, (1994)). Peptides (100 nM-1 μM applied concentration) were introduced into cells by transient permeabilization (Johnson, J. A., et al., Circ. Res. 79:1086-1099, (1996)) with sham permeabilization as control, or as carrier-peptide conjugates (30 nM-1 μM) (Derossi, D. et al., surpa (1994); Derossi, D. et al., surpa (1996); Théodore, L., et al., surpa (1995)) with a carrier-carrier dimer as a control.
Cells were treated for 10-20 minutes in the absence or presence of peptide followed by an additional incubation with or without 1 nM phorbol 12-myristate 13-acetate (PMA) for 10 or 20 minutes. Alternatively, cells were incubated for 10 minutes with 100 nM PMA (positive control) or in the absence of PMA.
Measurements of cardiac myocyte contraction rate were carried out essentially as previously described (Johnson, J. A., et al., J. Biol. Chem. 271:24962-24966, (1996). In brief, cardiomyocytes cultured on 35 mm plates were placed in a temperature-regulation apparatus at 37° C. (Medical Systems Corp.) and positioned on the stage of an inverted microscope (Carl Zeiss Inc.). The contraction rates of four cells in one microscopic field were determined every 2 minutes for 15 seconds each. The basal contraction rate (˜300 beats/minute) was stable over many hours.
Peptide SEQ ID Nos:3, 55 and 79 were introduced into cardiac myocyte cell cultures prepared from newborn rats by transient permeabilization, with sham permeabilization as control, or as carrier-peptide conjugates with a carrier-carrier dimer as control. The cells were treated for 10-20 minutes in the absence or presence of peptide followed by an additional incubation with or without phorbol 12-myristate 13-acetate (PMA) for 10 or 20 minutes. Alternatively, cells were incubated for 10 minutes with 100 nM PMA (positive control) or in the absence of PMA. The effect of the peptide and/or PMA was determined by measuring the contraction rate of the myocytes, as described in Example 1B.

[2] = system: neonatal rat cardiac myocytes; experiment: Cardiac myocyte contraction rate measurement; conditions: 40 minutes after PMA addition, n=4, p<0.05; PMA alone versus with N-ΨεRACK
rat cardiac myocytes = experiment: Simulated ischemia, cell damage by trypan blue exclusion; conditions: for effect on ΨεRACK-induced protection from ischemic damage: in combination with ΨεRACK; for effect on response to ischemia: peptide alone before simulated ischemia
Protocol: Cardiac myocytes were isolated from adult male rats as previously described (Chen et al., Proc. Natl. Acad. Sci., 96(22):12784 (1999)). Myocytes in incubation buffer were treated with a peptide or combination of peptides, prepared as described in Example 1, for 15 minutes. Myocytes were then pelleted at 1000 rpm for 1 minute in a degassed incubation buffer saturated with nitrogen and incubated at 37° C. for 3 hours to simulate ischemia. Cell damage was assessed after the 3 hours by trypan blue exclusion and percent cell with damage was determined as previously described (Chen et al., Proc. Natl. Acad. Sci., 96(22):12784 (1999)).

Molecule | decrease in contraction rate induced by 10 nM PMA [2] [%] | effect on ΨεRACK effect on contraction (negative chronotropy) [1] | effect on ΨεRACK-induced protection from ischemic damage (rat cardiac myocytes) | agonistic effect on contraction rate of cardiac myocytes ([1]; peptide alone) | effect on response to ischemia (rat cardiac myocytes) | effect on the decrease in contraction rate induced by PMA [1] | further results
CCCCCCCCCCCCCC(=O)O[C@@H]1[C@@H](C)[C@@]2(O)[C@@H](C=C(CO)C[C@]3(O)C(=O)C(C)=C[C@@H]23)[C@@H]2C(C)(C)[C@]12OC(C)=O [PMA, phorbol 12-myristate 13-acetate, reference compound] | 47±3 |  |  |  |  |  | decrease from the basal contraction rate ([1]; PMA alone): 11±4%
COc1ccc2c(c[n+](C)c3c4cc5c(cc4ccc23)OCO5)c1OC [chelerythrine, reference compound] |  | inhibited | reversed |  |  |  | 
EAVSLKPT (listed as Homo sapiens) [εV1-2, reference compound] |  | abolished | reversed |  |  |  | 
HAAPIGYD (Alternative pseudo-epsilon RACK peptide) [A-ΨεRACK] |  |  | did not | not induced | no effect |  | 
HDAPIGYD (listed as Homo sapiens) [ΨεRACK, εPKC agonist peptide, εPKC amino acid residues 85-92] |  |  |  |  |  | reduced the decrease in contraction rate | decrease in contraction rate from the basal rate ([1]; peptide alone, 20 minutes after peptide addition): 9±2%; decrease from the basal contraction rate ([1]; ΨεRACK together with PMA): 44±6%; reduction of ischemia-induced cell damage (rat cardiac myocytes; peptide 15 minutes before 3 hours simulated ischemia): 60%
HNAPIGYD (A modification of SEQ ID NO3) [N-ΨεRACK, εPKC antagonist peptide derived from ΨεRACK, D substituted by N] | 24±5 |  | abolished | no agonistic effect | no effect | able to reduce the decrease in contraction rate | decrease in contraction rate ([1]; cells treated with N-ΨεRACK, then ΨεRACK at 15 minutes and 1 nM PMA at 30 minutes): < 10%
